Numbering of substitutions follows the chain as printed. Read-outs that look alike come from different tables or passages of the source.
How the values were obtained:
Nurr1 LBD (wildtype) = molecular target: T1, Nurr1 LBD (wildtype) (Homo sapiens, UniProt P43354); test: Microscale thermophoresis (MST) binding to wildtype Nurr1 LBD; settings: for Binding to the Nurr1 LBD (in words): MST; for Amplitude: Table 1, MST amplitude, WT; for Response Amplitude: Table 2, MST, Wildtype
T1 construct: made in house
Protocol: (§1) Concentration-dependent association of the indoles with the Nurr1 LBD was carried out using microscale thermophoresis. Stock solutions (10 mM in DMSO) of each indole were serially diluted (200 μM indole, 0.5× dilutions down to 0.0061 μM) in MST buffer (25 mM HEPES, pH 7.4, 150 mM NaCl, and 0.1% Pluronic F127) containing 2% DMSO. The dilutions were carried out with 4% DMSO in the MST buffer for a total of 16 concentrations. Equivalent volumes and concentrations of the fluorescently labeled Nurr1 LBD in MST buffer were added to each ligand dilution in the series to reach a final concentration of 75 nM labeled protein. After incubating for 20 minutes, the samples were loaded into Monolith NT.115 Capillaries (Nanotemper).
(§2) Data were collected using the Monolith NT.115 System (Nanotemper), with settings for all samples at 40% excitation power and 40% MST power. The initial fluorescence was recorded for 3 sec and the thermophoresis fluorescence response was recorded for 20 sec. The data was inspected with Palmist software^5, and data points affected by initial fluorescence quenching or photobleaching were eliminated. The fluorescent response for each sample was normalized to the initial fluorescence using Palmist software to provide the values of thermophoresis (Fn). The resulting data was used to generate a plot of the change in thermophoresis (Fn-Fn0, where Fn=thermophoresis and Fn0=thermophoresis response in unbound range) versus concentration of the ligand. GraphPad Prism v. 8.3.0 software was used to fit the resulting data to a mass action equation for a specific binding with Hill slope, solving for KD: Fn-Fn0═Fmax·[L]^n/(KD^n+[L]^n), where Fmax=maximum amplitude of thermophoresis, [L]=concentration of the ligand at a specific point, KD=dissociation constant, nH=Hill Coefficient.
To investigate the potential impact of compound nano-aggregation on binding affinity, we used dynamic light scattering to inspect the aggregation of 5-chlorindole in solution and repeated the MST binding experiments in the presence of increasing concentrations of the surfactant Pluoronic F127 (FIGS. 12A-12D). […] As well, increasing concentrations of the surfactant Pluronic F127 had small effects (<2-fold) on the affinity of 5-chloroindole for the Nurr1 LBD (FIGS. 12A-12D).

[1] = molecular target: T2, Nurr1 LBD Arg563Ala + His516Ala (Homo sapiens, UniProt P43354, H516A/R563A); test: MST binding to Arg563Ala + His516Ala double mutant Nurr1 LBD; settings: for Amplitude (% change) / KD (% change): Table 1, H516A/R563A relative to WT; for Amplitude: Table 1, MST amplitude, H516A/R563A; for Response Amplitude: Table 2, MST, Arg563Ala + His516Ala
T2 construct: Mutants of LAP2 Nurr1 were prepared by GenScript starting from LAP2 Nurr1 vector; made in house
T2 sequence (P43354 with tags, fused parts or gaps H516A/R563A): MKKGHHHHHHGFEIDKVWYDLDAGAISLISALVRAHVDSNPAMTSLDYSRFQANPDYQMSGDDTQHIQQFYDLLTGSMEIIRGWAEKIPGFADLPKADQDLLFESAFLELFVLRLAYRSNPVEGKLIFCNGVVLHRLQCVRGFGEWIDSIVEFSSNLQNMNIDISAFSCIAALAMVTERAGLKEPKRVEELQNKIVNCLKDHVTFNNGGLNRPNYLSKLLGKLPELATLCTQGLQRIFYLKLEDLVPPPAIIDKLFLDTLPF
Protocol: (§3) The plasmid used for the expression of LAP2-tagged Nurr1 LBDs (LAP2 Nurr1) was prepared by GenScript (Piscataway, N.J.) as the product of gene synthesis and subcloning into pET-21a(+) Vector (GenScript) using the Ndel and Xhol sites within the MCS. Mutants of LAP2 Nurr1 were prepared by GenScript starting from LAP2 Nurr1 vector.
as §1, §2

Nurr1 LBD Arg563Ala = molecular target: T3, Nurr1 LBD Arg563Ala (Homo sapiens, UniProt P43354, R563A); test: MST binding to Arg563Ala mutant Nurr1 LBD; settings: for Amplitude: Table 1, MST amplitude, R563A; for Amplitude (% change) / KD (% change): Table 1, R563A relative to WT; for Response Amplitude: Table 2, MST, Arg563Ala
T3 construct: Mutants of LAP2 Nurr1 were prepared by GenScript starting from LAP2 Nurr1 vector; made in house
T3 sequence (P43354 with tags, fused parts or gaps R563A): T2 sequence (P43354 with tags, fused parts or gaps H516A/R563A) with A180H
Protocol: as §3, §1, §2

Nurr1 LBD His516Ala = molecular target: T4, Nurr1 LBD His516Ala (Homo sapiens, UniProt P43354, H516A); test: MST binding to His516Ala mutant Nurr1 LBD; settings: for Amplitude (% change) / KD (% change): Table 1, H516 relative to WT; for Amplitude: Table 1, MST amplitude, H516; for Response Amplitude: Table 2, MST, His516Ala
T4 construct: Mutants of LAP2 Nurr1 were prepared by GenScript starting from LAP2 Nurr1 vector; made in house
Protocol: as §3, §1, §2

[2] = system: Nurr1 target genes Th and Vmat2 in MN9D cells; test: Target gene transcription assay (qPCR) in MN9D cells; format: cell-based, mouse
Protocol: Target Gene Transcription Assays. These assays were carried out using standard protocols. MN9D TET-ON frozen cell stocks (P5) were thawed and grown for 60-72 h on poly-D-lysine pre-treated culture dishes (100 mm) in Dulbecco's Modified Eagle Medium/Nutrient Mixture F-12 (DMEM/F-12; Gibco) supplemented with 5% Tet System Approved FBS (Takara Bio USA) at 37° C., 5% C02 to ˜80% confluency. The resulting cells were then trypsinized with 0.25% Trypsin-EDTA (Gibko) and diluted to 2·10^5 cells/ml with fresh medium. The resulting cell suspension (0.8 mL) was added to 2× concentrated compound in the same medium containing 0.2% DMSO (0.8 mL) in an Eppendorf tube. The cell suspension with compound or vehicle (DMSO) was then seeded onto a 24-well plate pre-treated with Poly-D-Lysine at 0.8 mL per well. Assays were performed under conditions of basal Nurr1 expression, without induction of additional Nurr1 expression using doxycycline.
After 24 h, total RNA was extracted the cells in each well using the Quick-RNA MiniPrep Plus Kit (Zymo Research), according to the manufacturer's instructions. The cDNA was then synthesized from 1000 ng of purified RNA using High-Capacity cDNA Reverse Transcription Kit (Applied Biosystems) and used as template. The qPCR as performed using iTaq Universal SYBR Green Supermix (BioRad) and CFX96 Real-Time Detection System machine (BioRad). Briefly, qPCR was performed in hard-shell 96-well PCR plates (BioRad) using cDNA corresponding to 8.75 ng of starting total RNA in a volume of 15 μl, containing 7.5 μl of SYBR Green Supermix, and 1 μL of 10 μM forward and reverse primers. Cycling parameters for qPCR included an initial denaturation at 95° C. for 3 min, followed by 40 cycles of 95° C. for 5 s and annealing at 56° C. for 30 s. The forward and reverse primers (Table 4) were ordered from IDT. Gene expression was quantified by the comparative2-ΔΔCt method, with the mouse housekeeping gene hypoxanthine-guanine phosphoribosyltransferase (Hprt) used as internal reference to determine the relative mRNA expression. Transcript levels for target genes were normalized to the housekeeping gene Hprt and fold change was compared to gene expression levels from vehicle (DMSO) only treated cells. GraphPad Prism 8 software was used for statistical analysis. Two-way ANOVA was applied for DMSO fold change vs compound. Results are from three independent experiments. Relative average expression±SD; *p<0.05, **p<0.01, ***p<0.001, ****p<0.0001 by ANOVA in comparison expression with 0 μM compound (DMSO only).

[3] = Chemical stability in solution; format: physicochemical; settings: observed during data acquisition
MN9D cells = test: CytoTox-Glo cytotoxicity assay; format: cell-based; settings: 24 h treatment, 10 μM unless stated
Protocol: Cytotoxicity assays were carried out using the CytoTox-Glo Cytotoxicity Assay Kit (Promega) according to the manufacturer's instructions. Briefly, MN9D cells were resuspended in DMEM/F-12 with 5% FBS at 2·10^5 cells/ml and added to an equal volume of two-fold concentrated compound in the same media containing 0.2% DMSO (prepared by diluting DMSO stock of the compound in warm DMEM/F-12 with 5% FBS; for DMSO control equivalent volume of DMSO was used instead of the compound stock), and immediately re-plated onto poly-D-lysine pre-treated 96-well white-walled flat clear bottom plate (Corning cat #3903) at a density of 1·10^4 cells/well (100 μL/well), 3 replicas per compound. As a background (BG) control, for each of the compound (or DMSO) equivalent volume of compound mixed with DMEM/F-12+5% FBS was plated. After 24 h treatment at 37° C., in 5% C02 incubator, 50 μL of CytoTox-Glo™ Cytotoxicity Assay Reagent was added to each well, mixed briefly by orbital shaking and incubated for 15 min at ambient temperature. Luminescence signal corresponding to dead cells was measured using Biotek Synergy H4 hybrid microplate reader. After the measurement, 50 μL of Lysis Reagent was added to each well, mixed, incubated for 15 min at ambient temperature, and total luminescence was measured. The percentage of viable cells was then calculated as follows: Percent Viable Cells (%)=100% (Total cell luminescence (test compound)—Dead cell luminescence (test compound))/(Total cell luminescence (DMSO)—Dead cell luminescence (DMSO)).

[4] = Table 1, Nurr1 variant WT, read-out: KD
[5] = Table 2, Wildtype, read-out: Affinity (KD)
[6] = Table 1, Nurr1 variant H516A/R563A, read-out: KD
[7] = Table 2, Arg563Ala + His516Ala, read-out: Affinity (KD)
[8] = Table 1, Nurr1 variant R563A, read-out: KD
[9] = Table 2, Arg563Ala, read-out: Affinity (KD)
[10] = Table 1, Nurr1 variant H516, read-out: KD
[11] = Table 2, His516Ala, read-out: Affinity (KD)

T4 sequence (P43354 with tags, fused parts or gaps H516A): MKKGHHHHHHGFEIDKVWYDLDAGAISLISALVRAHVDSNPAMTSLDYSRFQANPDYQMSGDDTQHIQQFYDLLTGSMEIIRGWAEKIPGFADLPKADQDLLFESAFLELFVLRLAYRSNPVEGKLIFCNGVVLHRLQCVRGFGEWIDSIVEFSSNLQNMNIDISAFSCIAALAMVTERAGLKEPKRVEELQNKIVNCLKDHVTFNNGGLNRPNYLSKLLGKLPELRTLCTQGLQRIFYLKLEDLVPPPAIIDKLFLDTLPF
T1 sequence (P43354 with tags, fused parts or gaps): as the sequence (P43354 with tags, fused parts or gaps H516A) above, with A180H counted along it

Binding to the Nurr1 LBD (in words) (Nurr1 LBD (wildtype)) | Amplitude (Nurr1 LBD (wildtype)) | Kd (Nurr1 LBD (wildtype); [4]) [µM] | Response Amplitude (Nurr1 LBD (wildtype)) | Kd (Nurr1 LBD (wildtype); [5]) [µM] | Amplitude (% change) [1] | KD (% change) [1] | Amplitude [1] | Kd [1, 6] [µM] | Kd [1, 7] [µM] | Response Amplitude [1] | Amplitude (Nurr1 LBD Arg563Ala) | Kd (Nurr1 LBD Arg563Ala; [8]) [µM] | Amplitude (% change) (Nurr1 LBD Arg563Ala) | KD (% change) (Nurr1 LBD Arg563Ala) | Kd (Nurr1 LBD Arg563Ala; [9]) [µM] | Response Amplitude (Nurr1 LBD Arg563Ala) | Amplitude (% change) (Nurr1 LBD His516Ala) | SMILES | Chemical instability in solution [3] | Cytotoxicity / cell viability (MN9D cells) | other results
saturable binding | 31 + 1 | 2.2 | 31 + 1 | 2.2 | +39% | +627% | 43 + 5 | 16 | 15.6 | 43 + 5 (ns) | 32 + 3 | 11 | +3% | +400% | 11 | 32 + 3 (ns) | +13% | Brc1cc2cc[nH]c2cc1Br [5,6-dibromoindole] | – | – | KD (% change) (Nurr1 LBD His516Ala): +186%; Amplitude (Nurr1 LBD His516Ala): 35 + 2; Kd (Nurr1 LBD His516Ala; [10]): 6.3 µM; Kd (Nurr1 LBD His516Ala; [11]): 6.4 µM; Response Amplitude (Nurr1 LBD His516Ala): 35 + 2 (ns); Effect on expression of Nurr1 target genes Th and Vmat2 (in words) [2]: does not
saturable binding | 54 + 4 | 4.5 | 54 + 4 | 4.5 | 0% | +304% | 54 + 5 | 18 | 17.9 | 54 + 5 (ns) | 47 + 3 | 13 | −13% | +189% | 13.1 | 47 + 3 (ns) | +19% | Clc1cc2cc[nH]c2cc1Cl [5,6-dichloroindole] | – | – | KD (% change) (Nurr1 LBD His516Ala): +166%; Amplitude (Nurr1 LBD His516Ala): 67 + 9; Kd (Nurr1 LBD His516Ala; [10]): 12 µM; Kd (Nurr1 LBD His516Ala; [11]): 12 µM; Response Amplitude (Nurr1 LBD His516Ala): 67 + 9 (ns); Effect on expression of Nurr1 target genes Th and Vmat2 (in words) [2]: does not
– | – | – | – | – | – | – | – | – | – | – | – | – | – | – | – | – | – | Nc1ccc2[nH]ccc2c1 [5-aminoindole] | autooxidation and polymerization in solution | significant cytotoxicity | –
– | – | – | – | – | – | – | – | – | – | – | – | – | – | – | – | – | – | Oc1ccc2[nH]ccc2c1 [5-hydroxyindole] | autooxidation and polymerization in solution | significant cytotoxicity | –
– | – | – | – | – | – | – | – | – | – | – | – | – | – | – | – | – | – | Nc1ccc2cc[nH]c2c1 [6-aminoindole] | autooxidation and polymerization in solution | significant cytotoxicity | –
– | – | – | – | – | – | – | – | – | – | – | – | – | – | – | – | – | – | Oc1ccc2cc[nH]c2c1 [6-hydroxyindole] | autooxidation and polymerization in solution | significant cytotoxicity | –
